Results taken from patent publication US12280069B2, “Methods of using human milk oligosaccharides for improving airway respiratory health” (priority 2010, dated 2025).

Experiments:
[1] = tested on: respiratory syncytial virus (RSV); assay: RSV replication (RSV NS1 copy numbers) in 16HBE lung epithelial cells (Example 42); format: cell-based; details: RSV MOI 1, FIGS. 13-15
Procedure: Specifically, on Day −1, 16HBE cell monolayers are seeded in sufficient numbers to reach 95-100% confluence in 24 well places by Day 0. On day 0, either 2′FL (in concentrations of 1 μg/mL, 5 μg/mL, 10 μg/mL, 50 μg/mL, 100 μg/mL, 500 μg/mL, and 1000 μg/mL), LNnT (in concentrations of 10 μg/mL, 100 μg/mL, or 1000 μg/mL), or 3′SL (in concentrations of 5 μg/mL, 10 μg/mL, 50 μg/mL, 100 μg/mL, 500 μg/mL, and 1000 μg/mL) is added and incubated for approximately 24 hours at 37° C. in 5% CO2. On day 1, the cell supernatants are removed and the monolayers are incubated with medium alone or medium plus Respiratory Syncytial Virus (RSV) for approximately 1 hour at 37° C. in 5% CO2 at a multiplicity of infection (MOI) of 1. After approximately 1 hour, fresh medium alone or containing the appropriate concentrations of 2′FL 3′SL, or LNnT is added to the appropriate wells, and the cells are incubated for 48 hours at 37° C. in 5% CO2. On day 3, supernatants and cell lysates are collected separately, aliquotted and stored frozen at −70° C. for later analysis. Cell lysates are analyzed by TaqMan qRTPCR to assess viral replication through measurement of RSV NS1 copy numbers.

interleukin 10 (IL-10) [2] = assay: IL-10 in peripheral blood mononuclear cells with or without RSV (Example 39); format: cell-based, human; details: in the presence or absence of RSV; FIGS. 7-10
Procedure: Specifically, either 3′SL or 6′SL is added, at concentrations of 0.1 mg/mL, 0.2 mg/mL, or 0.5 mg/mL to fresh peripheral blood mononuclear cells and incubated at 37° C. in 5% CO2 to pretreat the cells for approximately 24 hours. LNnT is added, at concentrations of 0.1 mg/mL, 0.2 mg/mL, or 1 mg/mL to fresh peripheral blood mononuclear cells and incubated at 37° C. in 5% CO2 to pretreat the cells for approximately 24 hours. Lactose is included as a carbohydrate control. Matched endotoxin unit concentration controls are included to allow differentiation of ingredient effects from inherent low levels of endotoxin. Some variables are then incubated with RSV at a multiplicity of infection (MOI) of 0.1 for approximately 1 hour at 37° C. in 5% in CO2. Uninfected control variables are incubated with medium for approximately 1 hour at 37° C. in 5% CO2. […]
Cytokines are measured in supernatants for each variable at 24 and 48 hours to assess the effects of HMOs on the early immune response to RSV. Cytokines are measured using custom Bio-Plex Human cytokine kits from Bio-Rad. […] A positive correlation exists between RSV clinical disease severity in children (as measured by: length of hospital stay, fever, and number of days supplemental O2 is required) and serum IP-10. […]

[3] = tested on: monocyte-derived cytokines; assay: Monocyte-derived cytokines in peripheral blood mononuclear cells (Example 39); format: cell-based, human
Procedure: (§1) Specifically, either 3′SL or 6′SL is added, at concentrations of 0.1 mg/mL, 0.2 mg/mL, or 0.5 mg/mL to fresh peripheral blood mononuclear cells and incubated at 37° C. in 5% CO2 to pretreat the cells for approximately 24 hours. LNnT is added, at concentrations of 0.1 mg/mL, 0.2 mg/mL, or 1 mg/mL to fresh peripheral blood mononuclear cells and incubated at 37° C. in 5% CO2 to pretreat the cells for approximately 24 hours. Lactose is included as a carbohydrate control. Matched endotoxin unit concentration controls are included to allow differentiation of ingredient effects from inherent low levels of endotoxin. Some variables are then incubated with RSV at a multiplicity of infection (MOI) of 0.1 for approximately 1 hour at 37° C. in 5% in CO2. Uninfected control variables are incubated with medium for approximately 1 hour at 37° C. in 5% CO2. After approximately one hour, fresh medium alone, or fresh medium containing the appropriate concentration of 3′SL, 6′SL, LNnT, lactose, or endotoxin is added to the appropriate tubes and the cells are incubated for 48 hours at 37° C. in 5% CO2. Supernatants are collected at 24 and 48 hours post-infection.
(§2) Cytokines are measured in supernatants for each variable at 24 and 48 hours to assess the effects of HMOs on the early immune response to RSV. Cytokines are measured using custom Bio-Plex Human cytokine kits from Bio-Rad. Results for interferon-inducible protein 10 (IP-10, also known as CXCL 10) are shown in FIGS. 3 and 4 for 3′SL and 6′SL, and in FIGS. 5 and 6 for LNnT. IP-10 is a CXC chemokine that attracts, binds to and activates the CXCR3 receptor on natural killer cells and memory T cells. IP-10 is expressed by monocytes and a number of other cells, and is induced by interferon. A positive correlation exists between RSV clinical disease severity in children (as measured by: length of hospital stay, fever, and number of days supplemental O2 is required) and serum IP-10. Therefore, a decrease in IP-10 signals a decrease in severity of RSV disease experienced.

[4] = tested on: interferon-inducible protein 10 (IP-10); assay: IP-10 in RSV-infected peripheral blood mononuclear cells (Example 39); format: cell-based, human; details: for IP-10 level compared with uninfected controls / IP-10 in virus-infected variables: FIGS. 3-6; for IP-10 in virus-infected variables: both donors, 24 hour pretreatment, 0.1-0.5 mg/mL (LNnT 0.1-1 mg/mL); for reduction of inflammation caused by RSV: pretreatment for 24 hours, measured by decrease in IP-10
Procedure: as §1, §2

interleukin 10 (IL-10) [5] = assay: IL-10 in PBMCs in the presence or absence of RSV (Example 45); format: cell-based, human; details: in the presence or absence of RSV (MOI 0.1); for IL-10 response, Donor A and Donor E: 0.1-2.0 mg/mL, FIGS. 20A, 20B; for IL-10 response, Donor B and Donor E: FIGS. 19A, 19B
Procedure: Specifically, 3′SL and 6′SL are added individually at concentrations of 0.1 mg/mL, 0.2 mg/mL, or 0.5 mg/mL or in combination (Combo 1=1 part 3′SL to 1 part 6′SL; and Combo 2=1 part 3′SL to 2 parts 6′SL), at total concentrations of 0.2 mg/mL, 0.4 mg/mL, or 1.0 mg/mL to fresh PBMCs and incubated at 37° C. in 5% CO2 to pretreat the cells for approximately 24 hours. In a separate experiment, LNnT and 2′FL are added individually at concentrations of 0.1 mg/mL, 0.2 mg/mL, 1.0 mg/mL or 2.0 mg/mL to fresh PBMCs and incubated at 37° C. in 5% CO2 to pretreat the cells for approximately 24 hours. Lactose is included as a carbohydrate control. Matched endotoxin unit concentration controls are included to allow differentiation of ingredient effects from inherent low levels of endotoxin. After approximately 24 hours, some variables are then incubated with RSV at a multiplicity of infection (MOI) of 0.1 for approximately 1 hour at 37° C. in 5% in CO2. Uninfected control variables are incubated with medium for approximately 1 hour at 37° C. in 5% CO2. After approximately 1 hour, fresh medium alone or containing the appropriate concentrations of LNnT alone, 2′FL alone, 3′SL or 6′SL individually or in combination, lactose alone, or endotoxin alone is added to the appropriate variables, and the PBMCs were incubated for 48 hours at 37° C. in 5% CO2. Supernatants are collected at 24 and 48 hours post-infection. Cytokines are measured in supernatants for each variable at 24 and 48 hours to assess the effects of HMOs on the early immune response to RSV. Cytokines are measured using custom Bio-Plex Human cytokine kits from Bio-Rad.

[6] = tested on: H1N1 influenza A virus (IAV); assay: H1N1 influenza A virus replication (IAV M gene copy numbers) in 16HBE cells (Example 43); format: cell-based; details: 16HBE lung epithelial cells; MOI 0.01; FIG. 16
H1N1 influenza virus [7] = format: cell-based; details: at a concentration of 1 mg/mL
H1N1 influenza virus [8] = format: cell-based; details: 10 mg/mL; MDCK cells; FIG. 1
[9] = tested on: H1N1 influenza A virus (IAV); assay: H1N1 influenza A virus replication (IAV M gene copy numbers) in Calu3 cells (Example 43); format: cell-based; details: Calu3 lung epithelial cells; MOI 0.01; FIG. 17
[10] = tested on: interferon-inducible protein 10 (IP-10); assay: IP-10 in RSV-infected PBMCs, 6′SL (Example 44); format: cell-based, human; details: 0.1 mg/mL to 1 mg/mL; RSV MOI 1.0; 4 donors; 48 hours; FIG. 18
Procedure: Specifically, 6′SL was added individually at concentrations of 0.1 mg/mL, 0.2 mg/mL, 0.5 mg/mL or 1.0 mg/mL to fresh peripheral blood mononuclear cells (PCMBs) and incubated at 37° C. in 5% CO2 to pretreat the cells for approximately 24 hours. After approximately 24 hours, some variables are then incubated with RSV at a multiplicity of infection (MOI) of 1.0 for approximately 1 hour at 37° C. in 5% in CO2. Uninfected control variables are incubated with medium for approximately 1 hour at 37° C. in 5% CO2. After approximately 1 hour, fresh medium alone or containing the appropriate concentrations of 6′SL is added to the appropriate variables, and the PBMCs are incubated for 48 hours at 37° C. in 5% CO2. Supernatants are collected at 48 hours post-infection. Cytokines are measured in supernatants for each variable at 48 hours to assess the effects of HMOs on the early immune response to RSV.
Interferon-inducible Protein 10 (IP-10, also known as CXCL10) is a CXC chemokine that attracts, binds to and activates the CXCR3 receptor on Natural Killer Cells and Memory T cells. IP-10 is expressed by monocytes and a number of other cells, and is induced by interferon. A positive correlation exists between RSV clinical disease severity in children (as measured by: length of hospital stay, fever, and number of days supplemental O2 was required) and serum IP-10. […]

[11] = in the presence or absence of the virus

Row | Structure (SMILES) | concentrations that decrease viral load or inhibit RSV replication (RSV NS1 copies) [1] [µg/mL] | IL-10 concentration (interleukin 10 (IL-10) [2]) | production of monocyte-derived cytokines (IL-10, MIP-1β, Interferon-γ, IL-8, IL-1α, IL-1β, IL-1ra) [3, 11] | IP-10 level compared with uninfected controls ([4]; RSV MOI 0.1) | IP-10 in virus-infected variables ([4]; RSV MOI 0.1) | reduction of inflammation caused by RSV [4] | IL-10 response, Donor A and Donor E (interleukin 10 (IL-10) [5]) | concentrations that decrease viral load or inhibit IAV replication (IAV M gene copies) [6] [µg/mL] | production of monocyte-derived cytokines (MIP-1β, Interferon-γ, IL-8, IL-1ra) [3, 11] | anti-viral activity against H1N1 influenza virus (H1N1 influenza virus [7]) | RSV-induced IP-10, Donor B ([4]; RSV MOI 0.1, Donor B) | RSV-induced IP-10, Donor E ([4]; RSV MOI 0.1, Donor E) | IL-10 response, Donor B and Donor E (interleukin 10 (IL-10) [5]) | production of monocyte-derived cytokines (IL-10, MIP-1β, Interferon-γ, IL-8, IL-1α, IL-1β, IL-1ra) ([3]; in the absence of the virus) | inhibition of virus infectivity (H1N1 influenza virus [8]) | concentrations that decrease viral load or inhibit IAV replication (IAV M gene copies) [9] [µg/mL] | IP-10 in RSV infected PBMCs [10]
1 | CC(=O)N[C@H]1[C@H](O[C@H]2[C@@H](O)[C@@H](CO)O[C@@H](O[C@H]3[C@H](O)[C@@H](O)C(O)O[C@@H]3CO)[C@@H]2O)O[C@H](CO)[C@@H](O[C@@H]2O[C@H](CO)[C@H](O)[C@H](O)[C@H]2O)[C@@H]1O (mixture of isomers) [LNnT, lacto-N-neotetraose] | ≥ 10 | increases IL-10 concentration in a dose-dependent manner | immunomodulatory | reduce IP-10 to levels found in uninfected controls | clearly downregulates IP-10 | effective in reducing inflammation caused by RSV | clear dose-dependent increase in IL-10 response | ≥ 1 |  |  |  |  |  |  |  |  | 
2 | CC(=O)N[C@H]1[C@H]([C@H](O)[C@H](O)CO)O[C@@](O[C@H]2[C@@H](O)[C@@H](CO)O[C@@H](O[C@H]3[C@H](O)[C@@H](O)C(O)O[C@@H]3CO)[C@@H]2O)(C(=O)O)C[C@@H]1O (stereo partly drawn) [3′SL, 3′-sialyllactose] |  |  |  |  |  | effective in reducing inflammation caused by RSV |  |  | immunomodulatory | inhibited | not effective | downregulates RSV-induced IP-10 | do not increase IL-10 |  |  |  | 
3 | CC(=O)N[C@H]1[C@H]([C@H](O)[C@H](O)CO)O[C@@](OC[C@H]2O[C@@H](O[C@H]3[C@H](O)[C@@H](O)[C@H](O)O[C@@H]3CO)[C@H](O)[C@@H](O)[C@H]2O)(C(=O)O)C[C@@H]1O [6′SL, 6′-sialyllactose] |  |  |  | reduce IP-10 to levels found in uninfected controls | clearly downregulates IP-10 | effective in reducing inflammation caused by RSV |  |  |  |  |  |  | clear dose-dependent increase in IL-10 response | immunomodulatory | approximately 60% | ≥ 10 | dose-dependent downregulation of IP-10
4 | OC[C@H]1O[C@@H](O[C@H]2[C@H](O)[C@@H](O)C(O)O[C@@H]2CO)[C@H](O)[C@@H](O)[C@H]1O (stereo partly drawn) [lactose, Lactose, reference compound] |  |  |  |  |  |  | do not increase IL-10 |  |  |  |  |  | do not increase IL-10 |  |  |  | 
